These results are taken from US6290995A, “Plant drug for preventing cancer II” (priority 2000, dated 2001).

One test relates to mouse epidermis. As to conditions: in words; cited from earlier work.
The next test concerns c-myc RNA. Description: Inhibition of oncogene c-myc RNA in ML-1 cells (northern blot). Format: cell-based. As to conditions: Homo sapiens, ML1, 10 ng/ml, P <0.01.
In a further test the test system is n-ras RNA. Kind of test: Inhibition of oncogene n-ras RNA in ML-1 cells (northern blot). It counts as cell-based. As to conditions: Homo sapiens, ML1, 10 ng/ml, P <0.01.
The subject of another test is c-myb RNA. Kind of test: Inhibition of oncogene c-myb RNA in ML-1 cells (northern blot). It counts as cell-based. As to conditions: Homo sapiens, ML1, 10 ng/ml, P <0.01.
Test [1] has as its system advanced ovarian and breast cancer. As to conditions: clinical trials, late 1980s and early 1990s; cited from earlier work.

Procedure for c-myb RNA: (§1) Cells were maintained in suspension culture in RPMI 1640 medium supplemented with 7.5% heat-inactivated FBS, Cells growth and viability were assayed by hemocytometer using trypan blue dye exclusion. RNA was isolated by the CsCl gradient modification. RNA pellets were washed twice by reprecipitation in ethanol and quantitated by absorbency at 260 nM. RNA analyzed by electrophoresis of 15 μg of RNA through 1.2% agarose formaldehyde gels followed by northern blot transfer to nitrocellulose.
(§2) Single-standard uniformly labeled DNA probes were prepared. Probe of c-myc was a 1.7 Kb cla-Eco RI restriction fragment containing the 3'exon region of human c-myc and probe of c-myb was 1.0 Kb myb-specific Bam HI fragment. Probes for n-ras contained DNA fragments using a modification of the PCR technique. Probes for myb, myc and n-ras were isolated by electrolution. The isolated fragments were labeled to high specific activity with [α^32 P]-dCTP (3000 ci/mmol). Prehybridization of the filter was performed. The hybridization mixer contained 50,000 cpm of probe. The probes were hybridized at 58° C. in 15 mM NaCl, 1.5 nM sodium citrate for 3 hours. After hybridization, they were exposed to XAR-5 film. Oncogene expression was quantitated by densitometer scanning of the autoradiography.
Procedure for c-myc RNA: as §1, §2
Procedure for n-ras RNA: as §1, §2

Take `CCCCCCCCCCCCCC(=O)O[C@@H]1[C@@H](C)[C@@]2(O)[C@@H](C=C(CO)C[C@]3(O)C(=O)C(C)=C[C@@H]23)[C@@H]2C(C)(C)[C@]12OC(C)=O` [TPA, tetradecanoyphorbol-13-acetate]: the “effect on [3H] thymidine incorporation in mouse epidermis” value in the test on mouse epidermis is “remarkable increase”.
`COc1ccc2cc3[n+](cc2c1OC)CCc1cc2c(cc1-3)OCO2` [BE, Berberine]: the inhibition at 0.01 µg/mL in the test with c-myc RNA was 50.5 ± 6.1%; in the test on n-ras RNA, 30.2 ± 3.5%; in the test with c-myb RNA it was 52 ± 5.8%.
On to `O=C(O)[C@H]1O[C@@H](Oc2cc3oc(-c4ccccc4)cc(=O)c3c(O)c2O)[C@H](O)[C@@H](O)[C@@H]1O` [BA, Baicalin], for which the inhibition at 0.01 µg/mL with c-myc RNA stood at 29.3 ± 3.4%; in the test on n-ras RNA, 20.6 ± 3%; with c-myb RNA it was 24.4 ± 3%.
Turning to `CC(=O)O[C@H]1C(=O)[C@@]2(C)[C@H]([C@H](OC(=O)c3ccccc3)[C@]3(O)C[C@H](OC(=O)[C@H](O)[C@@H](NC(=O)c4ccccc4)c4ccccc4)C(C)=C1C3(C)C)[C@]1(OC(C)=O)CO[C@@H]1C[C@@H]2O` [Taxol], the “clinical activity against advanced ovarian and breast cancer” value in test [1] is given as “impressive clinical activities”.

Broadly, the inhibition is the relative decrease from the control value, in per cent. A higher inhibition goes with strong suppression.
